Reference: PMC12501029, “Discovery of a CNS active GSK3 degrader using orthogonally reactive linker screening” (Nature Communications, 2025)

Key:
HEK293 cells proteome = test: Tandem-Mass-Tagging global (whole) proteomics in HEK293 cells; format: cell-based, human; details: 10 nM
Description: For unbiased degradation profiling of compounds at the proteome level, HEK293 cells were seeded onto 10 cm plates at a density of 2–2.5 × 10^6 cells per plate. […] After treatment, cells were washed twice with PBS (Gibco), collected in Lobinding tubes (Merck) and lysed in RIPA buffer supplemented with Protease (Roche) and Phosphatase (Roche) inhibitors as previously described for 20 min on ice. Lysates were cleared via centrifugation and protein concentrations were determined by using Pierce BCA assay (Thermo Scientific). Similarly, brain and liver tissues from control and KH1 (24) treated mice were lysed as described above. One hundred and fifty micrograms of protein from tissues or cells for each condition was aliquoted into LoBind tubes (Eppendorf) and the STRAP (Protifi) protocol was followed according to manufacturers’ instructions with slight modifications. Briefly, liquid protein samples mixed with 2× Lysis buffer (10%SDS, 100 mM TEAB pH 8.5), protein was reduced with 5 mM DTT final concentration at 55 °C for 15 min, alkylated (final concentration 20 mM IAA or CAA) at room temperature for 10 min and then acidified (12% phosphoric acid). Protein was then trapped into S-trap columns and washed with S-trap binding/wash buffer (100 mM TEAB in 90% methanol) via centrifugation at 4000 × g for 30 s. Cleaned proteins then went through tryptic digestion (Trypsin (Thermo Scientific) in 50 mM TEAB) overnight at 37 °C or 2 h at 47 °C. Digested peptides were sequentially eluted in 80 µL of 50 mM TEAB (Sigma–Aldrich), 0.2% formic acid (Sigma–Aldrich) and 50% acetonitrile (Sigma–Aldrich). Elutions were pooled and dried down. Dried and cleaned peptides were reconstituted in 110 µL of 100 mM TEAB. TMT-16-plex reagent (Thermo Scientific) was brought into room temperature and reconstituted in 40 µL of anhydrous acetonitrile. TMT reagent solution was transferred to the peptides and incubated on thermoshaker (Eppendorf) at 400 rpm at room temperature for 1 h in the dark. Peptides were quenched by the addition of 8 µL of 5% Hydroxylamine for 1 h at room temperature. TMT-labelled peptides were pooled together and dried down in the speedVac for downstream processing. […]
The dried peptides were reconstituted in 0.1% formic acid and analyzed on an Orbitrap Ascend mass spectrometer coupled to a Thermo Fisher Scientific Vanquish Neo UHPLC. […] The precursor ions for MS2 were isolated using a Quadrupole mass filter at a 0.7 Da isolation width, fragmented using a normalised 30% HCD of ion routing multipole and analyzed using ion trap. The top 10 MS2 fragment ions in a subsequent scan were isolated and fragmented using HCD at a 55% normalised collision energy and analyzed using an Orbitrap mass analyser at a 60,000 resolution, in the scan range of 100–500 m/z. […]

mouse liver proteome = test: Whole proteome analysis of liver tissue from PK/PD study; format: in vivo, female Balb/c mice; details: 5 mg/kg i.v., 4 h; GSK3α could not be quantified
[1] = system: GSK3β-HiBiT KI HEK293 cells; test: Multiplexed degradation and cell viability assay (Gly-Phe-AFC fluorescence); format: cell-based, human; details: up to 24 h and 1 μM (10 nM, 100 nM, 1 µM; 2, 4, 24 h)
Description: For viability tests, GSK3β-HiBiT KI HEK293 cells were seeded onto white-opaque 96-well plates at a density of 2 × 10^4 cells per well. After 16 h, cells were treated with test compounds or DMSO with indicated concentrations for 2, 4 and 24 h. Thirty minutes before the end of treatment, 20 µL of reaction buffer containing Gly-Phe-A FC substrate (1:200 in cell culture media, Chem Cruz, sc506265) added to the each well and cells were returned to cell culture incubator. At the end of the treatment time, HiBiT lytic reagents were prepared according to the manufacturer's instructions (Promega) and 120 µL of reagent dispensed to each well. Fluorescence (viability) and luminescence (degradation) signals were measured by GloMAX discover plate reader (Promega) at the same time. Obtained data analysed using Excel and GraphPad Prism (v10.1.2) as previously described above.

Q: Which results are given for `Cn1nc(N2CCC(=O)NC2=O)c2ccc(CN3CCN(Cc4ccc(-c5cn(-c6ccc(-c7cn8nccc(C(=O)Nc9cnccc9N9CCOCC9)c8n7)cc6)nn5)nc4)CC3)cc21` [compound 24]?
A: proteome-wide selectivity (HEK293 cells proteome; 4 and 24 h, vs DMSO and negative control 27): consistent proteome-wide selectivity for GSK3α and GSK3β; proteome-wide selectivity (HEK293 cells proteome; 2 h, vs DMSO and negative control): exquisite selectivity for GSK3 paralogs; β-catenin abundance, log2 fold change (HEK293 cells proteome; 4 h, p < 0.0005): +0.63; β-catenin abundance, log2 fold change (HEK293 cells proteome; 24 h, p < 0.005): +0.89; proteome wide specificity in liver (mouse liver proteome): high levels of proteome wide specificity for GSK3β removal; impact on cell viability [1]: no impact on cell viability
